Data set [1] in a line: Solubility of BCIP / BCI2. The conditions noted are these: buffer 1: 1.01 M 2-ethylaminoethanol-HCl/0.505 mM MgCl2 (pH 9.87). Type of data set: physicochemical. The procedure:
The solubility of BCIP in the buffer 1 is about 70 mM. In order to obtain the optimum concentration of BCIP, first an ALP measurement reagent was prepared by dissolving BCIP in the buffer 1 to give a final concentration of 70 mM, and then the prepared reagent was diluted with the buffer 1 step by step to prepare ALP measurement reagents having BCIP final concentrations of 70 mM, 35 mM, 15 mM, 10 mM, 6.25 mM, 5 mM, 2.5 mM and 1.25 mm, respectively.

For data set [2] the following is noted: in the form of a sodium salt, cited from earlier work.

Read-outs that look alike come from different tables or passages of the source.

Regarding `O=P(O)(O)Oc1c[nH]c2ccc(Br)c(Cl)c12` [BCIP, 5-bromo-4-chloro-3-indoxyl phosphate], the “solubility of BCIP in the buffer 1” value in data set [1] is “about 70 mM”. Further, the figures for the “solubility of BCIP in pure water” value in data set [2] (same value expressed in mM) and in data set [2] were 54 mM and 20 mg/mL, respectively.

The values above are taken from EP1211505A1, “METHOD FOR MEASURING SUBSTANCE AND M[…] TO BE USED IN THE METHOD” (Asahi Kasei Kabushiki Kaisha, priority 1999, dated 2001).
